{"source": "patent US20080293931A1", "about": "“Methods and compositions for the removal of nucleic acid amplification inhibitors” (priority 2006, published 2008)", "key": {"E. coli DNA": {"tested_on": "E. coli DNA", "assay": "PCR of seeded E. coli DNA after PIR treatment of aqueous HA samples (decade of dilution necessary for successful PCR)", "details": "for Typical dilution decade for PCR / range of dilutions (dilution decade for PCR): aqueous humic samples seeded with E. coli DNA; for PCR products imaged after gel electrophoresis (band intensity): aqueous HA samples seeded with E. coli DNA", "experimental": "Consideration of dilution factors for successful PCR must also be reviewed. In untreated soil extracts containing DNA of interest, successful PCR of the extracted DNA may occur when the polymerase inhibitor is diluted sufficiently such that inhibition is suppressed and PCR may occur. Typical values for the dilution decade at which PCR is successful in samples containing humic materials and DNA of interest are often around decade four (1×10^4). Accordingly, a dilution factor of 10,000 would be necessary for successful PCR in a typical soil extract/sample. This magnitude of dilution may also impact PCR sensitivity for DNA/species already present at low concentrations and result in not identifying an organism that was present in the original sample extract.\nUsing this approach for presenting the HA removal data allows for the determination of a PIR compound's effectiveness for HA removal (ε) and compatibility for application in PCR systems via dilution data for PCR."}, "seeded E. coli DNA": {"tested_on": "seeded E. coli DNA", "assay": "PCR after PIR treatment of soil extracts (dilution to achieve PCR)"}, "[1]": {"assay": "Solubility of PIR compounds in aqueous solution", "type": "physicochemical", "details": "for solubility: aqueous solution"}, "[2]": {"assay": "Humic acid (HA) removal from aqueous commercial HA solutions by PIR compounds, fluorimetric HA determination", "design": "key to ε values: ε = −log(1 − efficiency); efficiency = ([HA]i − [HA]f)/[HA]i", "details": "for performance as PIR compound (in words): commercial humic acid solutions; for Average Efficiency, ε / Avg Reduction Factor: aqueous humic samples seeded with E. coli DNA; for ε values: 1M BRT in phosphate buffer, 19 days storage, HA avg 10,200 mg/L", "experimental": "Humic solutions were in 1×TAE buffer at RT with pH˜7. […] Samples from PIR experiments utilizing these materials were diluted, using 1×TAE, to concentrations falling within the linear response region representative of the humic material used.\nIn this study, when samples were interrogated for humic acid concentrations via fluorimetry, known concentrations of commercial humic acids were compared to known concentrations of humic standards.\nFIG. 1 compares the HA removal from samples containing DNA of interest to the molar concentration of varied PIR compounds by plotting an HA reduction factor as the initial [HA] divided by [HA] following treatment with PIR compounds. The commercially available PIR kit, from Mo-BIO, is placed on FIG. 1 for comparison and was arbitrarily assigned a molar concentration of 1 for convenience. […] The data shown in FIG. 1 were generated from varied initial [HA], ranging from ˜5,000 to 300,000 mg/L HA. These varied initial [HA] values represent a “worst case” scenario and these are in comparison to initial [HA] in extractions from problematic soils generating humic acid concentrations typically less than 5,000 mg/L.\nFIG. 2 plots the data from the same experiments represented in FIG. 1, but applying a different approach for data metric. FIG. 2 plots a dimensionless HA removal efficiency (or efficacy) value versus the decade of dilution necessary for successful PCR. The efficiency of HA removal is defined in equation 1 as the initial [HA] minus the final [HA] divided by the initial [HA]. This is essentially a percent removal approach.\nEfficiency=[HA]i−[HA]f/[HA]; (1)\nTo further discriminate efficiency values greater than 0.99, the efficiency was subtracted from the integer value of 1, and the −log was taken of 1-efficiency to generate a non-negative value indicative of HA removal efficiency with greater level of discrimination and resolution of values with high degrees of HA removal. This is described by equation 2."}, "[3]": {"details": "PIR 1 M, HAi avg 6,500-12,300 depending on compound (Table 6 c2)"}, "[4]": {"details": "aqueous solutions, read-out: solubility in aqueous solutions (molar solubility)"}, "[5]": {"details": "starred values of column PIR, M (footnote of Table 6), read-out: maximum molar solubility"}}, "note": "“Also recorded” adds a separate entry of the source. Where two headings read alike, the source gives them in different places."}
{"compound": "Cc1ncc(CO)c(CN)c1O", "note": "[PDA, Pyridoxamine]", "values": [{"measurement": "Decade of dilution", "setting": "E. coli DNA; 1M PDA in phosphate buffer, 30 days storage, 4 C., dark, HA avg ~10,000 mg/L", "value": 0}, {"measurement": "Decade of dilution", "setting": "E. coli DNA; 1M PDA in phosphate buffer, 30 days storage, 25 C., dark, HA avg ~10,000 mg/L", "value": 0}, {"measurement": "Decade of dilution", "setting": "E. coli DNA; 1M PDA in phosphate buffer, 30 days storage, 25 C., light, HA avg ~10,000 mg/L", "value": 0}, {"measurement": "Decade of dilution", "setting": "E. coli DNA; 1M PDA in phosphate buffer, 30 days storage, −20 C., dark, HA avg ~10,000 mg/L", "value": 0}, {"measurement": "Decade of dilution", "setting": "E. coli DNA; 2.9M PDA in phosphate buffer, 30 days storage, 4 C., dark, HA avg ~10,000 mg/L", "value": 0}, {"measurement": "Decade of dilution", "setting": "E. coli DNA; 2.9M PDA in phosphate buffer, 30 days storage, 25 C., dark, HA avg ~10,000 mg/L", "value": 1}, {"measurement": "Decade of dilution", "setting": "E. coli DNA; 2.9M PDA in phosphate buffer, 30 days storage, 25 C., light, HA avg ~10,000 mg/L", "value": 1}, {"measurement": "Decade of dilution", "setting": "E. coli DNA; 2.9M PDA in phosphate buffer, 30 days storage, −20 C., dark, HA avg ~10,000 mg/L", "value": 0}, {"measurement": "Decade of dilution", "setting": "E. coli DNA; 2.9M PDA solutions freshly prepared (Day 0)", "value": 0}, {"measurement": "Typical dilution decade for PCR", "setting": "E. coli DNA; [3]", "value": 1}, {"measurement": "range of dilutions (dilution decade for PCR)", "setting": "E. coli DNA; [3]", "value": "0-2"}, {"measurement": "PCR products imaged after gel electrophoresis (band intensity)", "setting": "E. coli DNA", "value": "often low and weak"}, {"measurement": "dilution decade at which PCR is achieved, on average", "setting": "seeded E. coli DNA; 100 mM PIR, soil extracts (Los Alamos Airport Soil)", "value": 1.0}, {"measurement": "PCR products following gel electrophoresis (band intensity)", "setting": "seeded E. coli DNA; PIR treated soil samples", "value": "typically weak"}]}
{"compound": "O=C(C[n+]1ccsc1)c1ccccc1", "note": "[PTB, Phenacyl Thiazolium Bromide, reference compound]", "values": [{"measurement": "solubility", "setting": "[1]; [4]", "value": "< 1000", "unit": "mM"}, {"measurement": "solubility", "setting": "[1]; [5]", "value": 1000, "unit": "mM"}]}
{"compound": "Nc1ccc(C(=O)C[n+]2ccsc2)cc1.[Br-]", "note": "[PTB-A, 4-Amine-Phenacyl Thiazolium Bromide]", "values": [{"measurement": "performance as PIR compound (in words)", "setting": "[2]", "value": "did not perform well; also recorded: poor performance"}]}
{"compound": "Cc1ncc(C[n+]2csc(CCO[P@](=O)(O)OP(=O)(O)O)c2C)c(N)n1", "note": "[THI-PP, thiamine pyrophosphate]", "values": [{"measurement": "Typical dilution decade for PCR", "setting": "E. coli DNA; PIR 0.3 M, HAi avg 14,000", "value": 0}, {"measurement": "range of dilutions (dilution decade for PCR)", "setting": "E. coli DNA; PIR 0.3 M, HAi avg 14,000", "value": "0-3"}, {"measurement": "solubility", "setting": "[1]; [4]", "value": 300, "unit": "mM"}, {"measurement": "solubility", "setting": "[1]; [5]", "value": 300, "unit": "mM"}, {"measurement": "solubility in aqueous solutions (molar solubility)", "setting": "[1]; aqueous solutions", "value": "~300", "unit": "mM"}, {"measurement": "Average Efficiency, ε", "setting": "[2]; PIR 0.3 M, HAi avg 14,000", "value": 2.57}, {"measurement": "Avg Reduction Factor", "setting": "[2]; PIR 0.3 M, HAi avg 14,000", "value": 384}, {"measurement": "performance as PIR compound (in words)", "setting": "[2]", "value": "did not perform well; also recorded: poor performance"}]}
{"compound": "Bromothiazole [BRT]", "values": [{"measurement": "Decade of dilution", "setting": "E. coli DNA; 1M BRT in phosphate buffer, 19 days storage, 4 C., dark, HA avg 10,200 mg/L", "value": 0}, {"measurement": "Decade of dilution", "setting": "E. coli DNA; 1M BRT in phosphate buffer, 19 days storage, 25 C., dark, HA avg 10,200 mg/L", "value": 0}, {"measurement": "Decade of dilution", "setting": "E. coli DNA; 1M BRT in phosphate buffer, 19 days storage, 25 C., light, HA avg 10,200 mg/L", "value": 0}, {"measurement": "Decade of dilution", "setting": "E. coli DNA; 1M BRT in phosphate buffer, 19 days storage, −20 C., dark, HA avg 10,200 mg/L", "value": 0}, {"measurement": "Typical dilution decade for PCR", "setting": "E. coli DNA; [3]", "value": 0}, {"measurement": "range of dilutions (dilution decade for PCR)", "setting": "E. coli DNA; [3]", "value": "0-3"}, {"measurement": "PCR products imaged after gel electrophoresis (band intensity)", "setting": "E. coli DNA", "value": "weak"}, {"measurement": "ε values", "setting": "[2]; 4 C., dark", "value": 1.99}, {"measurement": "ε values", "setting": "[2]; 25 C., dark", "value": 2.45}, {"measurement": "ε values", "setting": "[2]; 25 C., light", "value": 2.18}, {"measurement": "ε values", "setting": "[2]; −20 C., dark", "value": 1.36}, {"measurement": "increase of PIR ability (HA reduction factor) on day 19 versus day zero", "setting": "[2]; 1M BRT stored at room temperature, ambient lighting", "value": "~3", "unit": "factor"}, {"measurement": "increase of PIR ability (HA reduction factor) on day 19", "setting": "[2]; 1M BRT stored at room temperature, kept in the dark", "value": "greater than 2 factor"}, {"measurement": "Average Efficiency, ε", "setting": "[2]; [3]", "value": 2.21}, {"measurement": "Avg Reduction Factor", "setting": "[2]; [3]", "value": 199}]}
